Each structure is given as a SMILES string. Where only a bound is given, the exact number is not on record here.

In one assay the target is human CYP2D6 (Homo sapiens, UniProt P10635). The assay can be described thus: Cytochrome P450 2D6 inhibition (dextromethorphan O-demethylation, pooled human hepatic microsome).
Assay [1] concerns the target human opioid receptor-like (ORL-1) (Homo sapiens, UniProt P41146). The assay can be described thus: In vitro ORL-1 receptor [35S]GTPγS functional assay. In kind it is biochemical. A general note: Binding of GTPγS marks nucleotide exchange on a G protein.
The target of assay [2] is human kappa opioid receptor (Homo sapiens, UniProt P41145). The assay can be described thus: In vitro kappa-opioid receptor binding assay ([3H]-U69,593 displacement).
Chain of human kappa opioid receptor (P41145 whole entry): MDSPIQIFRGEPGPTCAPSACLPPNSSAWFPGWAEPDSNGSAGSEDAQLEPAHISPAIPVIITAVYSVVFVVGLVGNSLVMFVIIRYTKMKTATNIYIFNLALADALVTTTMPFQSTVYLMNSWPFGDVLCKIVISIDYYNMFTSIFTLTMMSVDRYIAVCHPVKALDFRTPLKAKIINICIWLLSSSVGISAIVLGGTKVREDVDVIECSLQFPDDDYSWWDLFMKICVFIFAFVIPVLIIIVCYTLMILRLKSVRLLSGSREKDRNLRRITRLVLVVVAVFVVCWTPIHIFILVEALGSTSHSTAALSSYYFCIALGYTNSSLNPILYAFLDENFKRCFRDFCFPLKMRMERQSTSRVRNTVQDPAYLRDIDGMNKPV

Chain of human CYP2D6 (P10635 whole entry): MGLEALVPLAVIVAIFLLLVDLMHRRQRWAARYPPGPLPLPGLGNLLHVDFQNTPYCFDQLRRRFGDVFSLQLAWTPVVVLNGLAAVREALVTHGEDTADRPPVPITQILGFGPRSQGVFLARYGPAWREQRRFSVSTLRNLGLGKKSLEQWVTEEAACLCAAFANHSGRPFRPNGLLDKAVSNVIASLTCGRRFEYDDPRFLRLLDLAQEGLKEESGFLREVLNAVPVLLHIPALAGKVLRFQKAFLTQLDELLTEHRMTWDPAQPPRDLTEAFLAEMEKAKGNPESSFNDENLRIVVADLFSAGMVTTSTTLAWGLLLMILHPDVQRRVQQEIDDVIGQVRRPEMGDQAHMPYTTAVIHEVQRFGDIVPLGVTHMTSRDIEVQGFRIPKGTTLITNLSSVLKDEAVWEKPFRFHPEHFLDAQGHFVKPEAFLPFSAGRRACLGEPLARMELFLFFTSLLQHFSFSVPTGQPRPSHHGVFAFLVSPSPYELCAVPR
Chain of human opioid receptor-like (ORL-1) (P41146 whole entry): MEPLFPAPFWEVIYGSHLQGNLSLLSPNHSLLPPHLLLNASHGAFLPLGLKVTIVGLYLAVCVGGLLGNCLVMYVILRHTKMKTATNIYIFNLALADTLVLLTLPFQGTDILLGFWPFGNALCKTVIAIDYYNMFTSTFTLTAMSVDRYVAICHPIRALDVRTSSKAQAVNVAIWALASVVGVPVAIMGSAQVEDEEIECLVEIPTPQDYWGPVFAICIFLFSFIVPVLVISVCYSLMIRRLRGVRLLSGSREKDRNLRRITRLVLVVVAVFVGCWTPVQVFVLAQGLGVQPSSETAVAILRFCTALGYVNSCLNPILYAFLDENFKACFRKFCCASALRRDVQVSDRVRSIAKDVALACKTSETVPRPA

Broadly, the IC50 is the concentration that inhibits the measured activity by half. A high value points to weaker potency. The EC50 is the concentration giving half of the maximal effect. Lower therefore signals higher potency in that assay. Take `Nc1ccn(-c2nc3ccccc3n([C@H]3C[C@H]4CCC[C@@H](C3)N4[C@@H]3C[C@@H]4CCCC[C@@H](C4)C3)c2=O)c(=O)n1` [Compound U068, 3-(4-amino-2-oxopyrimidin-1(2H)-yl)-1-((1R,3R,5S)-9-((1R,6S,8s)-bicyclo[4.3.1]decan-8-yl)-9-azabicyclo[3.3.1]nonan-3-yl)quinoxalin-2(1H)-one]: on human CYP2D6, the IC50 is above 20 µM. The compound further showed an EC50 in assay [1] above 20 µM.

Regarding `O=C(O)CCn1cccc(-c2nc3ccccc3n([C@H]3C[C@H]4CCC[C@@H](C3)N4[C@H]3C[C@@H]4CCC[C@@H](C4)C3)c2=O)c1=O` [Compound U057, 3-(3-(4-((1R,1′R,3r,3′R,5S,5′S)-[3,9′-bi(9′-azabicyclo[3.3.1]nonan)]-3′-yl)-3-oxo-3,4-dihydroquinoxalin-2-yl)-2-oxopyridin-1(2H)-yl)propanoic acid], the concentration for half-maximal inhibition (IC50) on human CYP2D6 is above 20 µM. The compound further returned a concentration giving a half-maximal response (EC50) in assay [1] above 20 µM.

In the case of `O=c1[nH]cnn1-c1nc2ccccc2n([C@H]2C[C@H]3CCC[C@@H](C2)N3[C@H]2C[C@@H]3CCC[C@@H](C3)C2)c1=O` [Compound B23a, 1-((1R,3r,3′R,5S,5′S)-[3,9′-bi(9′-azabicyclo[3.3.1]nonan)]-3′-yl)-3-(5-oxo-4,5-dihydro-1H-1,2,4-triazol-1-yl)quinoxalin-2(1H)-one], on human CYP2D6, the IC50 is 17.8 µM. In assay [1], this compound returned a 50% effective concentration (EC50) above 20 µM.

Regarding `O=c1ncc(-c2nc3ccccc3n([C@H]3C[C@H]4CCC[C@@H](C3)N4[C@H]3C[C@@H]4CCC[C@@H](C4)C3)c2=O)c[nH]1` [Compound U048, 1-((1R,1′R,3r,3′R,5S,5′S)-[3,9′-bi(9′-azabicyclo[3.3.1]nonan)]-3′-yl)-3-(2-oxo-1,2-dihydropyrimidin-5-yl)quinoxalin-2(1H)-one], the concentration for half-maximal inhibition (IC50) on human CYP2D6 is above 20 µM. Moreover, the EC50 in assay [1] was above 20 µM.

On human CYP2D6, `CC1(C)C(=O)NC(=O)N1c1nc2ccccc2n([C@H]2C[C@H]3CCC[C@@H](C2)N3[C@@H]2C[C@@H]3CCCC[C@@H](C3)C2)c1=O` [Compound O19a, 1-(4-((1R,3R,5S)-9-((1R,6S,8s)-bicyclo[4.3.1]decan-8-yl)-9-azabicyclo[3.3.1]nonan-3-yl)-3-oxo-3,4-dihydroquinoxalin-2-yl)-5,5-dimethylimidazolidine-2,4-dione] gave an IC50 above 20 µM. In addition, in assay [1], the EC50 is above 20 µM.

On human CYP2D6, `O=C(O)Cn1cccc(-c2nc3ccccc3n([C@H]3C[C@H]4CC[C@@H](C3)N4[C@H]3C[C@@H]4CCC[C@@H](C4)C3)c2=O)c1=O` [Q13a(iii), 2-(3-(4-((1R,3R,5S)-8-((1R,3r,5S)-bicyclo[3.3.1]nonan-3-yl)-8-azabicyclo[3.2.1]octan-3-yl)-3-oxo-3,4-dihydroquinoxalin-2-yl)-2-oxopyridin-1(2H)-yl)acetic acid] displayed a half-inhibitory concentration (IC50) above 20 µM. In assay [1], this compound returned an EC50 of 0.255 ± 0.042 µM.

Consider `O=C(O)Cn1cccc(-c2nc3ccccc3n([C@H]3C[C@H]4CCC[C@@H](C3)N4C3CCCCCCCCC3)c2=O)c1=O` [BB13c(iii), 2-(3-(4-((1R,3r,5S)-9-cyclodecyl-9-azabicyclo[3.3.1]nonan-3-yl)-3-oxo-3,4-dihydroquinoxalin-2-yl)-2-oxopyridin-1(2H)-yl)acetic acid], for which the IC50 at human CYP2D6 was above 20 µM. For the same compound, in assay [1], the EC50 is 0.101 ± 0.02 µM.

One may read the Ki as the dissociation constant of the complex between target and ligand, obtained from inhibition or displacement. Read a low Ki as tighter binding. `O=c1cnn(-c2nc3ccccc3n([C@H]3C[C@H]4COC[C@@H](C3)N4[C@@H]3C[C@@H]4CCCC[C@@H](C4)C3)c2=O)c(=O)[nH]1` [Compound P9b, 2-(4-((1R,5S,7 S)-9-((1R,6S,8s)-bicyclo[4.3.1]decan-8-yl)-3-oxa-9-azabicyclo[3.3.1]nonan-7-yl)-3-oxo-3,4-dihydroquinoxalin-2-yl)-1,2,4-triazine-3,5(2H,4H)-dione]: the affinity in assay [2] corresponds to a Ki of 13.1 µM. Besides, at human CYP2D6, the IC50 was above 20 µM. In assay [1], the response was half-maximal at 0.104 ± 0.043 µM (EC50).

Take `O=c1cnn(-c2nc3ccccc3n([C@H]3C[C@H]4CC[C@@H](C3)N4[C@H]3C[C@@H]4CCC[C@@H](C4)C3)c2=O)c(=O)[nH]1` [Compound A9a, 2-(4-((1R,3R,5S)-8-((1R,3r,5S)-bicyclo[3.3.1]nonan-3-yl)-8-azabicyclo[3.2.1]octan-3-yl)-3-oxo-3,4-dihydroquinoxalin-2-yl)-1,2,4-triazine-3,5(2H,4H)-dione]: at human CYP2D6, the IC50 is above 20 µM. For the same compound, in assay [1], a half-maximal response (EC50) required 0.378 ± 0.055 µM.

For `Cc1nn(-c2nc3ccccc3n([C@H]3C[C@H]4CCC[C@@H](C3)N4[C@H]3C[C@@H]4CCC[C@@H](C4)C3)c2=O)c(=S)[nH]c1=O` [Compound U001, 1-((1R,1′R,3r,3′R,5S,5′S)-[3,9′-bi(9′-azabicyclo[3.3.1]nonan)]-3′-yl)-3-(6-methyl-5-oxo-3-thioxo-4,5-dihydro-1,2,4-triazin-2(3H)-yl)quinoxalin-2(1H)-one], the IC50 at human CYP2D6 was above 20 µM. In addition, the EC50 in assay [1] was above 20 µM.

For the compound `O=c1ccn(-c2nc3ccccc3n([C@H]3C[C@H]4CCC[C@@H](C3)N4[C@@H]3C[C@@H]4CCCC[C@@H](C4)C3)c2=O)c(=O)[nH]1` [Compound O13b, 1-(4-((1R,3R,5S)-9-((1R,6S,8s)-bicyclo[4.3.1]decan-8-yl)-9-azabicyclo[3.3.1]nonan-3-yl)-3-oxo-3,4-dihydroquinoxalin-2-yl)pyrimidine-2,4(1H,3H)-dione], the IC50 at human CYP2D6 was above 20 µM. Further, in assay [1], the EC50 was above 20 µM.

Compound `O=C1CN(c2nc3ccccc3n([C@H]3C[C@H]4CCC[C@@H](C3)N4[C@H]3C[C@@H]4CCC[C@@H](C4)C3)c2=O)C(=O)N1` [Compound B17a, 1-(4-((1R,1′R,3r,3′R,5S,5′S)-[3,9′-bi(9′-azabicyclo[3.3.1]nonan)]-3′-yl)-3-oxo-3,4-dihydroquinoxalin-2-yl)imidazolidine-2,4-dione] yielded an IC50 against human CYP2D6 above 20 µM. For the same compound, the EC50 in assay [1] was above 20 µM.

In turn, `O=c1ccn(-c2nc3ccccc3n([C@H]3C[C@H]4CCC[C@@H](C3)N4[C@H]3C[C@@H]4CCC[C@@H](C4)C3)c2=O)c(=O)[nH]1` [Compound B13a, 1-(4-((1R,1′R,3r,3′R,5S,5′S)-[3,9′-bi(9′-azabicyclo[3.3.1]nonan)]-3′-yl)-3-oxo-3,4-dihydroquinoxalin-2-yl)pyrimidine-2,4(1H,3H)-dione] gave an IC50 against human CYP2D6 above 20 µM. In assay [1], this compound displayed an EC50 above 20 µM.

For the compound `CC1(C)C(=O)NC(=O)N1c1nc2ccccc2n([C@H]2C[C@H]3CCC[C@@H](C2)N3[C@H]2C[C@@H]3CCC[C@@H](C3)C2)c1=O` [Compound B19a, 1-(4-((1R,1′R,3r,3′R,5S,5′S)-[3,9′-bi(9′-azabicyclo[3.3.1]nonan)]-3′-yl)-3-oxo-3,4-dihydroquinoxalin-2-yl)-5,5-dimethylimidazolidine-2,4-dione], on human CYP2D6, the half-maximal inhibitory concentration (IC50) is above 20 µM. Moreover, the EC50 in assay [1] was above 20 µM.

For the origin of these results see US9085561B2, “Cyclic urea- or lactam-substituted quinoxaline-type piperidines as ORL-1 modulators” (priority 2012, dated 2015).
